{"source": "paper PMC11574021", "about": "“CEP192 localises mitotic Aurora-A activity by priming its interaction with TPX2” (The EMBO Journal, 2024)", "system": "Aurora-A in U251 cells", "experiment": "Immunofluorescence, Aurora-A spindle pole signal intensity, U251", "format": "cell-based, Homo sapiens", "settings": "U251, siRNA 48 h or Aurora-A inhibitor 30 min (250 nM)", "method": "Drugs were resuspended in DMSO to the stock concentrations indicated in square brackets.\nFor immunofluorescence, 1 × 10^5 cells were seeded in six-well plates and simultaneously transfected with 60 pmol siRNA duplex and 3 µl transfection reagent diluted in 200 µl Opti-MEM serum-free medium. Growth medium was added to a final volume of 2 ml. For western blotting, 1 × 10^6 cells were seeded in 10 cm dishes and transfected with 300 pmol siRNA duplex and 15 µl transfection reagent diluted in 1000 µl Opti-MEM. Growth medium was added to a final volume of 10 ml. Cells were incubated with siRNA for 48 h prior to fixation or harvesting. As a negative control (siControl) Silencer select negative control No.1 siRNA was transfected as above. For TACC3 depletion, where two siRNA duplexes were used, 40 pmol of each was transfected per well.\nFor siRNA depletion, 1 × 10^5 cells were seeded in six-well plates and transfected as described above for 48 h prior to fixation. For all other experiments, 2.5 × 10^5 cells were seeded in six-well plates and grown for 24 h before fixation. […] Cells in Fig. EV4A were fixed using 4% (wt/v) paraformaldehyde (PFA) in PBS for 12 min, followed by 10 min quenching in 50 mM NH4Cl in PBS and 5 min of permeabilization with 0.2% (v/v) Triton X-100 in PBS, all at room temperature. For centriole staining in Fig. EV4E, cells were fixed in pre-chilled methanol for 10 min at −20 °C, incubated in PBS for 10 min and then 5 min in 0.5% Triton-X-100, 0.5% Tween, 0.05% SDS in PBS (v/v). To observe centromere and kinetochore staining in Fig. 7C and Appendix Fig. S8A, cells were fixed with PTEMF buffer (20 mM PIPES pH 6.8, 0.2% (v/v) Triton X-100, 10 mM EGTA, 1 mM MgCl2, 4% PFA (wt/v) in PBS) for 12 min at room temperature. For all other experiments, cells were fixed in pre-chilled methanol for 5 min at −20 °C. Following fixation, coverslips were blocked in 2% BSA (wt/v), 0.1% Tween (v/v) in PBS, this and all antibody incubation steps were carried out for 1 h at room temperature, unless otherwise stated. Primary and secondary antibody (Life technologies) dilutions were made in 0.1% Tween, PBS, with secondary staining being conducted in the dark. Coverslips were gently washed with three x 2 ml 0.2% Tween, PBS between antibody incubation steps. […]\nHere “area” refers to the area of DAPI-stained DNA, determined by thresholding (default mode) the region of interest. […] The diameter calculated, therefore, refers to that of a circle with equivalent area to the DAPI signal measured previously. The area of the nuclear DAPI signal (Appendix Fig. S6I) was determined by thresholding (as above). […] All fluorescence intensity and area measurements were obtained from maximum intensity z-projections. […]"}
{"molecule": "COc1cc(Nc2ncc3c(n2)-c2ccc(Cl)cc2C(c2c(F)cccc2OC)=NC3)ccc1C(=O)O", "note": "[Alisertib]", "values": [{"measurement": "spindle (pole)-associated Aurora-A level", "setting": "listed as Aurora-A inhibition", "value": "significant drop"}]}
{"molecule": "5′-CGGUAGUGAUAAAAGCUCAtt-3′ [siTPX2]", "values": [{"measurement": "spindle (pole)-associated Aurora-A level", "setting": "listed as TPX2 depletion", "value": "complete loss of Aurora-A from mitotic spindles"}, {"measurement": "spindle (pole)-associated Aurora-A level", "setting": "listed as depletion of TPX2", "value": "diminished levels of spindle pole-associated Aurora-A"}]}
{"molecule": "5′-CAAACAACUUGGAAAUCGAtt-3′ [siCEP192]", "values": [{"measurement": "spindle (pole)-associated Aurora-A level", "value": "significant drop"}]}
